Data from patent US5843958A, “Arylpyrazoles as leukotriene inhibitors” (Ortho Pharmaceutical Corporation, priority 1997, dated 1998).

How the values were obtained:
5-lipoxygenase = target: T1, 5-lipoxygenase (Rattus norvegicus, UniProt P12527); experiment: inhibition of 5-HETE production in broken RBL-1 cells (isolated enzyme); type: biochemical; conditions: Table A, broken RBL-1 cell supernatant; for inhibition at 3 µM: read-out: Isolated Enzyme % Inhib.; for inhibition at 3 µM / Isolated Enzyme % Inhib.: 3 μM
T1 construct: The pellet was discarded and the supernatant was saved as the source of enzymes; endogenous in cells; host or cells: RBL-1 (rat basophilic leukemia) cells, homogenate supernatant
T1 sequence (P12527 1-673): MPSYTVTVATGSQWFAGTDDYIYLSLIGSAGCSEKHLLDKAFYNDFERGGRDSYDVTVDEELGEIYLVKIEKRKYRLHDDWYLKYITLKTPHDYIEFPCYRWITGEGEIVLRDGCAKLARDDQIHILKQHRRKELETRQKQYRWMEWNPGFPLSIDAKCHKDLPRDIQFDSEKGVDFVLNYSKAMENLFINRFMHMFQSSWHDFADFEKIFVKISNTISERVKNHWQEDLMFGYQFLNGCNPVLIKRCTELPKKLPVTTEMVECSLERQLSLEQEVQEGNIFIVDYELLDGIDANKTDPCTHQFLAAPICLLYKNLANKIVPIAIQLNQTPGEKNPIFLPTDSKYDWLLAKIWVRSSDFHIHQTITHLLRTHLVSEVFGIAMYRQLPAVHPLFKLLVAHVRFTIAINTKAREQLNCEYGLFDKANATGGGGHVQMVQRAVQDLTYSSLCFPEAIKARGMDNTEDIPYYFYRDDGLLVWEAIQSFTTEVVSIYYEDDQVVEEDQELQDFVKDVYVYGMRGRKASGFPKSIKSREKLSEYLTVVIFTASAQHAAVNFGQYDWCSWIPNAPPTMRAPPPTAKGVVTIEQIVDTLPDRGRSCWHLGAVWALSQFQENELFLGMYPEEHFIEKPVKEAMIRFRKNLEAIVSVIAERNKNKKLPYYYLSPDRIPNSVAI
Description: (§1) The compounds of the invention were evaluated for their ability to inhibit the production of the arachidonic acid product 5-HETE in broken and whole cell models. Since this is the first step of leukotriene biosynthesis, a reduction in the production of 5-HETE is directly attributable to inhibition of 5-lipoxygenase, where the standard concentration is 3.0 μM. If the IC50 of the whole cell assay is smaller than the IC50 of the broken cell model, it is an indication that the compounds are inhibiting the cooperation of FLAP and 5-lipoxygenase.
Rat basophilic leukemia cells (RBL-1; 5×10^7 viable cells/mL) were disrupted by homogenization on ice (four 20 sec bursts) with a Brinkman polytron. Complete cell breakage was verified microscopically. The homogenate was then centrifuged at 9,220×g for 48 minutes at 4° C. The pellet was discarded and the supernatant was saved as the source of enzymes. The supernatant was pre-incubated for five minutes at 37° C. in the presence of 2 mM of CaCl2 and compound or vehicle (1% DMSO). The conversion of AA into products by CO and LO was initiated by adding 10 μL (50 μCi) of 1-^14 C-AA to each tube and incubated at 37° C. for 20 minutes. The reaction was stopped by adjusting the pH of each sample to 3 to 3.5 with 2M formic acid. Samples were extracted with three volumes of chloroform to isolate the products of 5-LO formed during the reaction. Fractions were dried under nitrogen, then resuspended in 40 μL of chloroform and spotted onto silica gel HL plates. The plates were developed in A-9 solvent. The dried plates were analyzed using a Bioscan Imaging TLC scanner to determine the percentage of radiolabelled AA converted to 5-HETE (LO product) in each sample. The percentage of inhibition was calculated by:
[1-(5-HETE test)]/5-HETE control×100=% inhibition
The IC50 was determined using a curve fit in Cricket Graph (Computer Associated), which provided the equation of the regressed line used in the calculation.

5-LO = experiment: inhibition of 5-LO (5-HETE production) in intact RBL-1 cells (whole cell); type: cell-based, Rat; conditions: Table A
Description: as §1
The ability to inhibit 5-LO and CO in intact RBL-1 cells was also evaluated. RBL-1 cells were maintained in culture in minimal essential medium (Bio*Whittaker, Walkersville, Md.), containing 12.5% fetal calf serum, 10 mg/mL streptomycin, 10 I.U./mL penicillin G, […] gentamycin and 2 mM L-glutamine (Bio*Whittaker, Walkersville, Md.). Cells were collected by centrifugation, washed once in HBSS, and resuspended at a concentration of 1×10^5 cells/mL. Cells were incubated in the presence of vehicle or drug then centrifuged at 800×g for 10 minutes at 4° C. The supernatant was removed by aspiration and the cells were resuspended in 0.5 mL of HBSS. The reaction was started by the addition of 20 μg/mL of calcium ionophore A 23187 (mixed calcium and magnesium salts, Calbiochem, La Jolla Calif.) and allowed to proceed for 15 minutes, then stopped by plunging the tubes into a slush ice bath. The conversion of AA to 5-LO products was initiated by the addition of 10 μL (50 uCi) of 1-^14 C-AA. Products were isolated by acidification and extraction, followed by thin layer chromatography analysis as described above. Radioactive areas corresponding to authentic 5-LO (5-HETE) and CO (PGD2) products were quantitated by the Bioscan 2000 Imaging System and the IC50 was calculated as above.

Work on `O=C(O)CCc1cc(-c2ccc(Cl)cc2)n(-c2ccc(OCc3ccc4ccccc4n3)cc2)n1` [Cpd 15] yielded an inhibition at 3 µM (5-lipoxygenase) of 0% and an IC50 (5-LO) of 5200 nM.
Molecule `ON=CCCc1cc(-c2ccc(Cl)cc2)n(-c2ccc(OCc3ccc4ccccc4n3)cc2)n1` [Cpd 9, 5-(4-Chlorophenyl)-3-oximino 1-(4-(2-quinolyl)methoxy)phenyl)-pyrazol-3-yl]propanal.0.25 Hydrate] has an inhibition at 3 µM (5-lipoxygenase) of 44% and an IC50 (5-LO) of 550 nM.
Work on `ClCCc1cc(-c2ccc(Cl)cc2)n(-c2ccc(OCc3ccc4ccccc4n3)cc2)n1` [Cpd 4, 3-(2-Chloroethyl)-5-(4-chlorophenyl)-1-[4-(2-quinolyl)methoxyphenyl]pyrazole] yielded an inhibition at 3 µM (5-lipoxygenase) of 55% and an IC50 (5-LO) of 5300 nM.
Molecule `O=C(O)CCc1cc(-c2ccc(OCc3ccc4ccccc4n3)cc2)n(-c2ccccc2)n1` [Cpd 19] has an inhibition at 3 µM (5-lipoxygenase) of 0%.
`O=C(O)Cc1cc(-c2ccc(Cl)cc2)n(-c2ccc(OCc3ccc4ccccc4n3)cc2)n1` [Cpd 2, 2-[5-(4-Chlorophenyl)-1-(4-(2-quinolyl)methoxyphenyl)-pyrazol-3-yl]acetic acid] showed an inhibition at 3 µM (5-lipoxygenase) of 15% and an IC50 (5-LO) of 390 nM.
`OCCc1cc(-c2ccc(Cl)cc2)n(-c2ccc(OCc3ccc4ccccc4n3)cc2)n1` [Cpd 3] was tested, and the inhibition at 3 µM (5-lipoxygenase) was 31% and the IC50 (5-LO) was 1300 nM.
For `O=CCCc1cc(-c2ccc(Cl)cc2)n(-c2ccc(OCc3ccc4ccccc4n3)cc2)n1` [Cpd 8], the inhibition at 3 µM (5-lipoxygenase) was 49% and the IC50 (5-LO) was 3200 nM.
`CN(O)C(=O)CCc1cc(-c2ccc(OCc3ccc4ccccc4n3)cc2)n(-c2ccc(Cl)cc2)n1` [Cpd 21] showed an inhibition at 3 µM (5-lipoxygenase) of 15%.
For `COc1ccc(-n2nc(CCC(=O)O)cc2-c2ccc(OCc3ccc4ccccc4n3)cc2)cc1` [Cpd 13], the “Isolated Enzyme % Inhib.” value (5-lipoxygenase) was 8% and the IC50 (5-LO) was 3900 nM.
`COC(=O)CCc1cc(-c2ccc(OCc3ccc4ccccc4n3)cc2)n(-c2ccccc2)n1` [Cpd 17] was tested, and the inhibition at 3 µM (5-lipoxygenase) was 19%.
Molecule `COc1ccc(-n2nc(CCC(=O)N(C)O)cc2-c2ccc(OCc3ccc4ccccc4n3)cc2)cc1` [Cpd 16] has an inhibition at 3 µM (5-lipoxygenase) of 87% and an IC50 (5-LO) of 540 nM.
With `CN(O)C(=O)CCc1cc(-c2ccc(Cl)cc2)n(-c2ccc(OCc3ccc4ccccc4n3)cc2)n1` [Cpd 22] the inhibition at 3 µM (5-lipoxygenase) was 100% and the IC50 (5-LO) was 1000 nM.
Work on `OCCCc1cc(-c2ccc(Cl)cc2)n(-c2ccc(OCc3ccc4ccccc4n3)cc2)n1` [Cpd 20] yielded an inhibition at 3 µM (5-lipoxygenase) of 21% and an IC50 (5-LO) of 840 nM.
Molecule `CCOC(=O)Cc1cc(-c2ccc(Cl)cc2)n(-c2ccc(OCc3ccc4ccccc4n3)cc2)n1` [Cpd 1] has an inhibition at 3 µM (5-lipoxygenase) of 29% and an IC50 (5-LO) of 13400 nM.
Molecule `O=C(O)CCc1cc(-c2ccc(OCc3ccc4ccccc4n3)cc2)n(-c2ccc(Cl)cc2)n1` [Cpd 18] has an inhibition at 3 µM (5-lipoxygenase) of 0%.
In the case of `CN(O)C(=O)CCc1cc(-c2ccc(Cl)cc2)n(-c2ccc(OCc3ccc4ccccc4n3)cc2)n1` [Cpd 7, 3-{5-(4-Chlorophenyl)-N-hydroxy-N-methyl-1-[4-(2-quinolyl)methoxyphenyl]pyrazol-3-yl}propanamide], the “Isolated Enzyme % Inhib.” value (5-lipoxygenase) is reported as 93%, the IC50 (5-lipoxygenase) is reported as 210 nM and the IC50 (5-LO) is reported as 490 nM.
`CC(C)COC(=O)CCc1cc(-c2ccc(Cl)cc2)n(-c2ccc(OCc3ccc4ccccc4n3)cc2)n1` [Cpd 10] gave an inhibition at 3 µM (5-lipoxygenase) of 34% and an IC50 (5-LO) of 1500 nM.
In the case of `COc1ccc(-n2nc(CCC(=O)O)cc2-c2ccc(OCc3ccc4ccccc4n3)cc2)cc1` [Cpd 14], the “Isolated Enzyme % Inhib.” value (5-lipoxygenase) is reported as 24% and the IC50 (5-LO) is reported as 2000 nM.
Work on `Cc1cc(-c2ccc(Cl)cc2)n(-c2ccc(OCc3ccc4ccccc4n3)cc2)n1` [Cpd 11] yielded an inhibition at 3 µM (5-lipoxygenase) of 32% and an IC50 (5-LO) of 6500 nM.
`CN(O)C(=O)OCCc1cc(-c2ccc(Cl)cc2)n(-c2ccc(OCc3ccc4ccccc4n3)cc2)n1` [Cpd 5, 5-(4-Chlorophenyl)-3-[2-(N-hydroxy-N-methylcarbamoyloxy)]ethyl]-1-[4-(2-quinolyl)methoxyphenyl]pyrazole.0.05 Hydrate] gave an inhibition at 3 µM (5-lipoxygenase) of 93% and an IC50 (5-LO) of 1100 nM.
Molecule `CCOC(=O)CCc1cc(-c2ccc(Cl)cc2)n(-c2ccc(OCc3ccc4ccccc4n3)cc2)n1` [Cpd 12] has an inhibition at 3 µM (5-lipoxygenase) of 19% and an IC50 (5-LO) of 7400 nM.
